pIC50: −log10 of the molar value.
Molecular target: T1, porcine pancreatic lipase (Sus scrofa, UniProt P00591)
T1 sequence (P00591 1-450): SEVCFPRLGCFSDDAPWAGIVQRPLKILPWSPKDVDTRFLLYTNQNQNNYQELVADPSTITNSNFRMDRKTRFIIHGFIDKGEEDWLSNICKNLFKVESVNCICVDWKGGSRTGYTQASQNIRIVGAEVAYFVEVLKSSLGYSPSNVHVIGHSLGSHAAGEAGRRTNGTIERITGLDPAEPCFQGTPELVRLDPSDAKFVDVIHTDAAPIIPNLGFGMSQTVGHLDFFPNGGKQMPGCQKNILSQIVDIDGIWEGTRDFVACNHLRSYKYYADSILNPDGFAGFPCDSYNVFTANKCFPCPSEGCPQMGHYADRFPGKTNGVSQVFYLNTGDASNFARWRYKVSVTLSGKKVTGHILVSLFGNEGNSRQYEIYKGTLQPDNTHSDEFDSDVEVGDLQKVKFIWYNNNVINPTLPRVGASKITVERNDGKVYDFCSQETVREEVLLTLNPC
Test: Lipase enzyme activity, NaOH titration method (lipid micelles)
Format: biochemical
Conditions: NaOH titration assay; system containing lipid micelles
Procedure: Measurement of Lipase Enzyme Activity Using a NaOH Titration Method
The inhibitory activity of the selected compounds to pancreatic lipase was measured in the assay described in Pasquier et al; 1996, Vol 7, Nutritional Biochemistry, 293-302.
Log dose/response curves were constructed using a range of inhibitor concentrations.
Selected benzoxazinone compounds were tested in the NaOH titration assay. In this assay, the activity of porcine pancreatic lipase in a system containing lipid micelles is recorded. These conditions are therefore similar to those encountered in the gastrointestinal tract.

| pIC50 | SMILES |
| --- | --- |
| > 6.00 | Cc1ccc2nc(SCCCCCCCCCCc3ccccc3)oc(=O)c2c1 [Compound 5, 6-Methyl-2-(10-phenyldecyl)-thio-4H-3,1-benzoxazin-4-one] |
| > 6.00 | Cc1ccc2nc(Sc3ccccc3)oc(=O)c2c1 [Compound 4, 6-Methyl-2-phenylthio-4H-3,1-benzoxazin-4-one] |

Reference: US6916808B2, “2-thio-4h-3, 1-benzoxazin-4-one derivatives for use as enzyme inhibitors” (Alizyme Therapeutics Limited, priority 2000, dated 2005)
